Assay results reported in a compilation of properties of binary mixtures (doi:10.1007/s10973-018-7427-0).

Test: xn = mol fraction of the nth substance listed
Settings: 100 kPa

C=CN1CCCC1=O + CCCC[n+]1ccn(C)c1.F[P-](F)(F)(F)(F)F
speed of sound [m/s]
Settings	x2 = 0	x2 = 0.1011	x2 = 0.2059	x2 = 0.3019	x2 = 0.3937	x2 = 0.5023	x2 = 0.584	x2 = 0.6946	x2 = 0.7788	x2 = 0.8707
298.15 K	1521.5	–	1506	1496.4	1487.8	1477.6	1470.5	1461.5	1455.7	1449.9
303.15 K	–	1498.9	1490.1	–	1473.5	1463.9	1457.4	1449.1	1443.4	1437.9
308.15 K	1483.7	1481.8	–	–	1459.2	1450.2	1444.3	–	1431.1	1425.8
313.15 K	1465	1464.7	1458.3	–	1444.9	–	1431.2	–	1419	1414
318.15 K	1446.5	–	–	1436.6	1430.9	1423.4	1418.4	1411.6	1407	1402.3
323.15 K	–	1431.1	–	–	1416.9	1410.2	1405.7	1399.4	1395.1	1390.8

CCCC[n+]1ccn(C)c1.F[P-](F)(F)(F)(F)F + C=CN1CCCC1=O
x1 = 1
Settings	speed of sound [m/s]
298.15 K	1443.8
303.15 K	1431.7
308.15 K	1419.8
313.15 K	1408.2
318.15 K	1396.8
323.15 K	1385.6
